Format in all cases: cell-based
Experiment [1] relates to human lung cancer cell line A549. Kind of experiment: THP-1-mediated antibody-dependent phagocytic activity against A549. The following applies: THP-1 coculture 2.5 hours. As for the experimental part:
(§1) Specifically, in each combination test group (a romidepsin combination test group, a panobinostat combination test group, and a cisplatin combination test group), the indicated drug used in combination was applied to human cancer cells, and then the cancer cells were cocultured with human monocytic cells (THP-1) in the presence of the anti-CAPRIN-1 antibody, and the antibody-mediated phagocytic activity against the cancer cells by THP-1 was evaluated. […] The concentration of the drug used in combination was set to a concentration that decreased the proliferation rate of the cancer cells by about half at the completion of culture. As a control, a test group without a drug used in combination was established. […] Further, dead cells were stained with propidium iodide (PI) (final concentration: 0.1 μg/mL), followed by the measurement of fluorescence from the cells by flow cytometry. PI-positive dead cells were excluded from analysis. The human monocytic cells THP-1 recognize an antibody bound onto cancer cells and phagocytize the cancer cells. At that time, if the cancer cells have been stained with calcein-AM, the monocytic cells ingesting the cancer cells by phagocytosis also become positive to calcein-AM. Thus, the phagocytic activity in this evaluation system was calculated as the ratio (%) of APC-positive/calcein-AM-positive cells to the whole calcein-AM-positive population.

Experiment [2] concerns human breast cancer cell line MDA-MB-231. Nature of the experiment: THP-1-mediated antibody-dependent phagocytic activity against MDA-MB-231. Conditions: panobinostat combination test group (30 nM, 2 days) with anti-CAPRIN-1 antibody, THP-1 coculture 1 hour. As for the experimental part:
(§2) Specifically, in each combination test group (a romidepsin combination test group and a panobinostat combination test group), the indicated drug used in combination was applied to human cancer cells, and then the cancer cells were cocultured with human monocytic cells (THP-1) in the presence of the anti-CAPRIN-1 antibody, and the antibody-mediated phagocytic activity against the cancer cells by THP-1 was evaluated. […] As a control, a test group without a drug used in combination was established. […] Further, dead cells were stained with propidium iodide (PI) (final concentration: 0.1 μg/mL), followed by the measurement of fluorescence from the cells by flow cytometry. PI-positive dead cells were excluded from analysis. The human monocytic cells THP-1 recognize an antibody bound onto cancer cells and phagocytize the cancer cells. At that time, if the cancer cells have been stained with calcein-AM, the monocytic cells ingesting the cancer cells by phagocytosis also become positive to calcein-AM. Thus, the phagocytic activity in this evaluation system was calculated as the ratio (%) of APC-positive/calcein-AM-positive cells to the whole calcein-AM-positive population.

The test system of experiment [3] is human colon cancer cell line HCT116. Kind of experiment: THP-1-mediated antibody-dependent phagocytic activity against HCT116. Conditions: panobinostat combination test group (10 nM, 2 days) with anti-CAPRIN-1 antibody, THP-1 coculture 2.5 hours. As for the experimental part:
as §1

For experiment [4], the system named is human ovarian cancer cell line TOV-21G. Nature of the experiment: THP-1-mediated antibody-dependent phagocytic activity against TOV-21G. Conditions: panobinostat combination test group (30 nM, 2 days) with anti-CAPRIN-1 antibody, THP-1 coculture 1 hour. As for the experimental part: as §2
The test system of experiment [5] is human prostate cancer cell line DU145. Nature of the experiment: THP-1-mediated antibody-dependent phagocytic activity against DU145. Conditions: THP-1 coculture 2.5 hours. As for the experimental part:
as §1

Experiment [6] relates to human uterus cancer cell line MFE-296. Nature of the experiment: THP-1-mediated antibody-dependent phagocytic activity against MFE-296. The following applies: romidepsin combination test group (20 nM, 2 days) with anti-CAPRIN-1 antibody, THP-1 coculture 1 hour. As for the experimental part: as §2
The test system of experiment [7] is human bile duct cancer cell line KKU-100. Kind of experiment: THP-1-mediated antibody-dependent phagocytic activity against KKU-100. Conditions: romidepsin combination test group (2 nM, 2 days) with anti-CAPRIN-1 antibody, THP-1 coculture 1 hour. As for the experimental part:
as §2

The mark [8] stands for this setting: panobinostat combination test group (10 nM, 2 days) with anti-CAPRIN-1 antibody.
The mark [9] stands for this setting: romidepsin combination test group (1 nM, 2 days) with anti-CAPRIN-1 antibody.

Turning to `N.N.[Cl][Pt][Cl]` [cisplatin], the “phagocytic activity against cancer cells” value in experiment [1] (cisplatin combination test group (20 μM, 2 days) with anti-CAPRIN-1 antibody) is 13%.
For `Cc1[nH]c2ccccc2c1CCNCc1ccc(/C=C/C(=O)NO)cc1` [panobinostat, (2E)-N-Hydroxy-3-[4-({[2-(2-methyl-TH-indol-3-yl)ethyl]amino}methyl)phenyl]prop-2-enamide], the “phagocytic activity against cancer cells” value in experiment [2] is listed as 41%; in experiment [1] (setting [8]), 15%; in experiment [3] it was 32%; in experiment [4], 81%; in experiment [5] (setting [8]), 8%.
With `C/C=C1\NC(=O)[C@H]2CSSCC/C=C/[C@H](CC(=O)N[C@H](C(C)C)C(=O)N2)OC(=O)[C@H](C(C)C)NC1=O` [romidepsin, (1S,4S,10S,16E,21R)-7-[(2Z)-ethylidene]-4,21-bis(1-methylethyl)-2-oxa-12,13-dithia-5,8,20,23-tetraazabicyclo[8.7.6]tricos-16-ene-3,6,9,19,22-pentone], the “phagocytic activity against cancer cells” value in experiment [6] is given as ≥ 27%; in experiment [7] it was ≥ 14%; in experiment [1] (setting [9]) it was 29%; in experiment [5] (setting [9]), 8%.
